Legend:
[1] = molecular target: T1, rThBgl (Trichoderma harzianum, UniProt A0A127SA86); assay: glucose tolerance of beta-glucosidase activity, […] glucose, triplicate; format: biochemical; conditions: read-out: % activity at 300 mM
T1 construct: gene bgl; full-length GH1 beta-glucosidase, bgl gene 1398 bp, pET28a, E. coli Rosetta; N-terminal His6-tag cut with thrombin for assays

[2] = substrate: O=[N+]([O-])c1ccc(O[C@@H]2O[C@H](CO)[C@@H](O)[C@H](O)[C@H]2O)cc1; assay: purified protein; conditions: 100 mM sodium phosphate pH 6.0, 40 °C, 0-10 mM substrate, 10 min

Row | Molecule | activity at 300000 µM [1] | Km [2]
1 | OC[C@H]1OC(O)[C@H](O)[C@@H](O)[C@@H]1O (some centres unmarked) [glucose] | 50% | –
2 | rThBgl (Trichoderma harzianum) (protein) MLPKDFQWGFATAAYQIEGAIDKDGRGPSIWDTFCAIPGKIADGTSGVTACDSYNRTAEDIALLKSLGAKSYRFSISWSRIIPKGGRDDPVNQLGIDHYAQFVDDLLEAGITPFITLFHWDLPEELHQRYGGLLNRTEFPLDFENYARVMFKALPKVRNWITFNEPLCSAIPGYGSGTFAPGRQSTTEPWIVGHNLLVAHGRAVKVYRDEFKDLNDGQIGIVLNGDFTYPWDSSDPLDREAAERRLEFFTAWYADPIYLGDYPASMRKQLGDRLPEFTPEEKAFVLGSNDFYGMNHYTSNYIRHRTSPATADDTVGNVDVLFYNKEGQCIGPETESSWLRPCPAGFRDFLVWISKRYNYPKIYVTENGTSLKGENDLPKEKILEDDFRVNYYNEYIRAMFTAATLDGVNVKGYFAWSLMDNFEWADGYVTRFGVTYVDYENGQQRFPKKSAKSLKPLFDELIAKE | – | 970 µM

— publication PMC4802607, “Crystal structure and biochemical characterization of the recombinant ThBgl, a GH1 β-glucosidase overexpressed in Trichoderma harzianum under biomass degradation conditions” (Biotechnology for Biofuels, 2016)
